Columns and labels:
Format in all cases: cell-based, Human
501mel = assay: MTT cytotoxicity assay; conditions: for IC50: Homo sapiens, 501mel, 72 h treatment, MTT
FDH = assay: MTT cytotoxicity assay; conditions: FDH primary fibroblasts, 72 h treatment
MM200 = assay: MTT cytotoxicity assay; conditions: for IC50: MM200, 72 h treatment, MTT
SK-MEL-147 [1] = assay: MTT cytotoxicity assay; conditions: for IC50: Homo sapiens
SK-MEL-19 = assay: MTT cytotoxicity assay; conditions: for IC50: Homo sapiens, SK-MEL19, SK-MEL-19, 72 h treatment, MTT
SK-MEL-28 [2] = assay: MTT cytotoxicity assay; conditions: for IC50: Homo sapiens
WM293A = assay: MTT cytotoxicity assay; conditions: for IC50: Homo sapiens, WM293A, 72 h treatment, MTT
SK-MEL-147 [3] = assay: Trypan blue exclusion test (cell viability); conditions: for number of viable cells: SK-MEL-147, 24-h treatment, 1.0, 2.5 or 5.0 µM
Description: (§1) Fifty thousand (5 × 10^4) cells in 1 mL of media were seeded in cell culture dishes and, 24 h later, treated with SQ1 or SQ2 (1.0, 2.5, and 5.0 µM), vehicle (DMSO) and doxorubicin (DOX, positive control) for 24 h. Cells were detached, stained with Trypan Blue solution 0.4% (1:10, v/v; Sigma-Aldrich, St. Louis, MO, USA) and counted in a Neubauer chamber under optical microscopy to determine concentrations of viable and non-viable cells.

SK-MEL-28 [4] = assay: Trypan blue exclusion test (cell viability); conditions: SK-MEL-28, 24-h treatment, 1.0, 2.5 or 5.0 µM
Description: as §1

[5] = 501mel versus FDH, 72-h IC50 ratio
[6] = 501mel versus MRC-5, 72-h IC50 ratio
[7] = MM200 versus FDH, 72-h IC50 ratio
[8] = MM200 versus MRC-5, 72-h IC50 ratio
[9] = SK-MEL-147, 24 h, SK-MEL-147, 24h treatment, MTT
[10] = SK-MEL-147, 48 h, SK-MEL-147, 48h treatment, MTT
[11] = SK-MEL-147, 72 h, SK-MEL-147, 72 h treatment, MTT
[12] = SK-MEL-147, SK-MEL-147, 24h treatment, 1h pre-treated with 30 nM bafilomycin A1
[13] = SK-MEL-147, SK-MEL-147, 24h treatment, 1h pre-treated with 20 µM Z-VAD-FMK
[14] = SK-MEL-147, SK-MEL-147, 24h treatment, no pre-treatment (Table S4)
[15] = SK-MEL-147 versus FDH, 72-h IC50 ratio
[16] = SK-MEL-147 versus MRC-5, 72-h IC50 ratio
[17] = SK-MEL-19 versus FDH, 72-h IC50 ratio
[18] = SK-MEL-19 versus MRC-5, 72-h IC50 ratio
[19] = SK-MEL-28, 24 h, SK-MEL-28, 24h treatment, MTT
[20] = SK-MEL-28, 48 h, SK-MEL-28, 48h treatment, MTT
[21] = SK-MEL-28, 72 h, SK-MEL-28, 72 h treatment, MTT
[22] = SK-MEL-28, SK-MEL-28, 24h treatment, 1h pre-treated with 30 nM bafilomycin A1
[23] = SK-MEL-28, SK-MEL-28, 24h treatment, 1h pre-treated with 20 µM Z-VAD-FMK
[24] = SK-MEL-28, SK-MEL-28, 24h treatment, no pre-treatment (Table S4)
[25] = SK-MEL-28 versus FDH, 72-h IC50 ratio
[26] = SK-MEL-28 versus MRC-5, 72-h IC50 ratio
[27] = WM293A versus FDH, 72-h IC50 ratio
[28] = WM293A versus MRC-5, 72-h IC50 ratio

Row | Structure (SMILES) | Selectivity Index (SI) (501mel; [5]) | Selectivity Index (SI) (501mel; [6]) | IC50 (501mel) [nM] | IC50 (FDH; Homo sapiens, Fibroblast, 72 h) [nM] | IC50 (MM200; Homo sapiens, 72 h) [nM] | Selectivity Index (SI) (MM200; [7]) | Selectivity Index (SI) (MM200; [8]) | IC50 (SK-MEL-147 [1]; [9]) [nM] | IC50 (SK-MEL-147 [1]; [10]) [nM] | IC50 (SK-MEL-147 [1]; [11]) [nM] | IC50 (SK-MEL-147 [1]; [12]) [nM] | IC50 (SK-MEL-147 [1]; [13]) [nM] | IC50 (SK-MEL-147 [1]; [14]) [nM] | Selectivity Index (SI) (SK-MEL-147 [1]; [15]) | Selectivity Index (SI) (SK-MEL-147 [1]; [16]) | IC50 (SK-MEL-19) [nM] | Selectivity Index (SI) (SK-MEL-19; [17]) | Selectivity Index (SI) (SK-MEL-19; [18]) | IC50 (SK-MEL-28 [2]; [19]) [nM] | IC50 (SK-MEL-28 [2]; [20]) [nM] | further results
1 | O=c1c2ccccc2c(=O)c2c1sc1c(=O)c3ccccc3c(=O)c12 [SQ1, seriniquinone] | 3.6 | 2.0 | 320 | 1150 | 1360 | 0.8 | 0.5 | 1790 | 1610 | 130 | 2260 | 1890 | 1640 | 8.8 | 4.9 | 60 | 19.2 | 10.7 | 560 | 690 | IC50 (FDH): 1200 nM; IC50 (MM200): 1400 nM; IC50 (SK-MEL-28 [2]; [21]): 150 nM; IC50 (SK-MEL-28 [2]; [22]): 140 nM; IC50 (SK-MEL-28 [2]; [23]): 700 nM; IC50 (SK-MEL-28 [2]; [24]): 350 nM; Selectivity Index (SI) (SK-MEL-28 [2]; [25]): 7.7; Selectivity Index (SI) (SK-MEL-28 [2]; [26]): 4.3; IC50 (WM293A): 1050 nM; Selectivity Index (SI) (WM293A; [27]): 1.1; Selectivity Index (SI) (WM293A; [28]): 0.6; number of viable cells (SK-MEL-147 [3]): significantly reducing the number of viable cells; number of viable cells (SK-MEL-28 [4]): significantly reducing the number of viable cells
2 | CC(C)(O)C(O)CCc1ccc2c(=O)c3sc4c(=O)c5ccccc5c(=O)c4c3c(=O)c2c1 (centres unmarked) [SQ2] | 10.6 | 14.3 | 110 | 1170 | 750 | 1.6 | 2.1 | 1260 | 890 | 100 | 1180 | 1280 | 910 | 11.7 | 15.7 | 40 | 29.3 | 39.3 | 140 | 260 | IC50 (SK-MEL-28 [2]; [21]): 40 nM; IC50 (SK-MEL-28 [2]; [22]): 60 nM; IC50 (SK-MEL-28 [2]; [23]): 370 nM; IC50 (SK-MEL-28 [2]; [24]): 240 nM; Selectivity Index (SI) (SK-MEL-28 [2]; [25]): 29.3; Selectivity Index (SI) (SK-MEL-28 [2]; [26]): 39.3; IC50 (WM293A): 740 nM; Selectivity Index (SI) (WM293A; [27]): 1.6; Selectivity Index (SI) (WM293A; [28]): 2.1; number of viable cells (SK-MEL-147 [3]): significantly reducing the number of viable cells; proportion of non-viable cells (SK-MEL-147 [3]; SK-MEL-147, 24 h, 2.5 and 5.0 µM): significantly higher; number of viable cells (SK-MEL-28 [4]): significantly reducing the number of viable cells
